Assay results as given in patent US6803475B2, “Fluorous tagging compounds and methods of use thereof” (University of Pittsburgh, priority 2000, dated 2004).

How the values were obtained:
Type in all cases: physicochemical
[1] = Stability under protic acidic conditions in 5% p-TsOH/MeOH
Procedure: (§1) The stability of these alkoxysilyl ethers appeared to be determined by the steric bulk around the silicon atom. While 34a was not very stable (t1/2˜6 min) under the acidic reaction conditions, 34b (t1/2˜4 h) was moderately stable, and the tert-butyl-phenyl-1H,1H,2H,2H-heptadecafluorodecyloxysilyl ether 37a (t1/2>>6 h) was very stable. […] As a result of the enhanced electrophilicity of the silicon atom in bis-alkoxysilyl ethers, the latter are generally more labile toward nucleophiles and bases than either the TBDPS or the tert-butyldimethylsilyl (TBDMS) groups. […] In contrast, the stability under protic acidic conditions in 5% p-TsOH/MeOH (t1/2˜40 min) is more limited.

[2] = Stability of fluorous alkoxysilyl ethers in CH2Cl2/trifluoroacetic acid (5%), remaining ether analysed by LC-MS; conditions: aliquots quenched with MeOH/pyridine (20:1)
Procedure: Fluorous alkoxysilyl ethers (34a,b, 37a) were each dissolved in a mixture of CH2Cl2/trifluoroacetic acid (5%), and aliquots of these solutions were quenched with MeOH/pyridine (20:1). The quenched reaction mixtures were analyzed for remaining 34a,b and 37a by LC-MS (Liquid chromatography-mass spectrometry). Reactions and quenching were performed on a HP 7868 solution phase synthesizer. Analysis of quenched samples was done with a HP 1100 series LC/MS. Samples eluted were compared with unreacted control samples. (Rt [min]: 2.6 (34a), 2.9 (34b), 2.3 (37a); Novapak C18, 3.9×150 mm, 1.2 mL/min, MeOH as eluent).
as §1
Reactions and quenching were performed on a HP 7868 solution phase synthesizer. […]

[3] = Stability in THF-d8 / 0.25 M NaOD (3:1), determined by 1H NMR; conditions: THF-d8 and 0.25 M NaOD (3:1)
Procedure: as §1

t1/2 under protic acidic conditions [1]: ~0.667 h
t1/2 under the acidic reaction conditions [2]: > 6 h
t1/2 in mildly basic aqueous medium [3]: 48 h
SMILES: CC(C)(C)[Si](OCCC(F)(F)C(F)(F)C(F)(F)C(F)(F)C(F)(F)C(F)(F)C(F)(F)C(F)(F)F)(OC1CCCCC1)c1ccccc1 (stereo not drawn) [37a, tert-butyl-phenyl-1H,1H,2H,2H-heptadecafluorodecyloxysilyl ether]
